Experimental data as given in US20260200885A1, “BENZOPYRONE COMPOUNDS AS WELL AS PREPARATION METHOD THEREFOR AND USE THEREOF” (CHENGDU DI’AO JIUHONG PHARMACEUTICAL FACTORY, priority 2022, published 2026).
Read-outs that look alike come from different tables or passages of the source.

How the values were obtained:
A2780 cells = test: Determination of cell activity (CellTiter-Glo Luminescent Cell Viability Assay); assay type: cell-based; details: Homo sapiens
Experimental: To examine the effect of compounds on cell viability, ATP was directly quantified using the CellTiter-Glo Luminescent Cell Viability Assay (Promega) to determine the number of viable cells.
Cell density was selected based on optimal signal intensity and growth curve for the inoculation of A2780 cells. The cells were incubated at 37° C. and 5% C02 overnight. Cells were treated with blank group, DMSO group and compound group, respectively, at 37° C. and 5% C02 for 7 days. The prepared solutions were added to cell wells according to the instructions of CellTiter-Glo (Promega), and shaken at a speed of 400 g for 2 min. Then, the solutions were centrifuged at 1000 g for 2 min and incubated at rest for 30 min to ensure a complete reaction. […] readings were taken using a multi-label microplate reader (Perkin Elmer) to calculate IC50 values.

[1] = Pharmacokinetic assay in CD1 mice; assay type: in vivo; details: for half-life: intragastric administration 5 mg/kg, Table I-3, read-out: T1/2 (h) for oral administration (converted)
Experimental: pharmacokinetic assay of compounds was carried out in CD1 mice aged 6-8 weeks with IMT1B as a positive control. The compounds and the positive control were dissolved in 30% aqueous hydroxypropyl-β-cyclodextrin solution containing 25% PEG400 and administered via intravenous injection (1 mg/kg) or intragastric administration (5 mg/kg). Blood samples were collected at 0.033, 0.083, 0.25, 0.5, 1, 2, 4, 8, 24 h and 0.083, 0.25, 0.5, 1, 2, 4, 8, 24 h respectively after administration.
The concentration of the compounds in plasma samples was analyzed using the LC-MS/MS method. Pharmacokinetic calculations were performed using WinNonlin (Phoenix™, version 8.3) or other similar software. The following pharmacokinetic parameters were calculated from the plasma concentration vs. time data: for intravenous administration: T1/2, C0, AUClast, AUCinf, MRTinf, Cl, Vss, regression coefficient, etc.; for oral administration: T1/2, Cmax, Tmax, AUClast, AUCinf, bioavailability, etc. The above parameter data were statistically calculated and described using descriptive statistics such as mean value and standard deviation.

[2] = 168 h, A2780 cells, 7 days treatment, CellTiter-Glo, read-out: IC50
[3] = mouse, plasma, po, 5 mg/kg, main pharmacokinetic parameters, Table I-4

| IC50 (A2780 cells; [2]) [nM] | SMILES | further results |
| --- | --- | --- |
| 20 to 100 | CC(Oc1ccc2c(-c3ccc(F)cc3Cl)cc(=O)oc2c1)C(=O)c1cccc(F)c1 (stereo not drawn) [Compound A-1-2-1-71] | – |
| 20 to 100 | CC(Oc1ccc2c(-c3ccc(F)cc3Cl)cc(=O)oc2c1)C(=O)c1ccsc1 (stereo not drawn) [Compound A-1-10-1-7] | – |
| < 20 | CC(Oc1ccc2c(-c3ccc(F)cc3Cl)cc(=O)oc2c1)C(=O)c1ccc(N)cc1 (stereo not drawn) [Compound A-1-2-1-78] | – |
| < 20 | CC(=O)NCCc1ccc(C(=O)C(C)Oc2ccc3c(-c4ccc(F)cc4Cl)cc(=O)oc3c2)cc1 (stereo not drawn) [Compound A-1-2-1-104] | – |
| 20 to 100 | CC(Oc1ccc2c(-c3ccc(F)cc3Cl)cc(=O)oc2c1)C(=O)c1ccoc1 (stereo not drawn) [Compound A-1-10-1-6] | – |
| < 20 | CC(=O)Oc1ccc(C(=O)C(C)Oc2ccc3c(-c4ccc(F)cc4Cl)cc(=O)oc3c2)cc1 (stereo not drawn) [Compound A-1-2-1-83] | – |
| – | CC(Oc1ccc2c(-c3ccc(F)cc3Cl)cc(=O)oc2c1)C(=O)C1CCN(CC(=O)O)CC1 (stereo not drawn) [α-12] | IC50 (A2780 cells; A2780, 168 h): 100 to 1000 nM |
| 100 to 1000 | CC(Oc1ccc2c(-c3ccc(F)cc3Cl)cc(=O)oc2c1)C(=O)c1ccc[nH]1 (stereo not drawn) [Compound A-1-10-1-4] | half-life ([1]; mouse, plasma, po): 3.76 h |
| 100 to 1000 | CC(Oc1ccc2c(-c3ccc(F)cc3Cl)cc(=O)oc2c1)C(=O)C1CCNC1 (stereo not drawn) [Compound A-1-10-1-35] | – |
| < 20 | CC(Oc1ccc2c(-c3ccc(F)cc3Cl)cc(=O)oc2c1)C(=O)c1ccc(O)cc1 (stereo not drawn) [Compound A-1-2-1-82] | – |
| 20 to 100 | CC(Oc1ccc2c(-c3ccc(F)cc3Cl)cc(=O)oc2c1)C(=O)c1cccc(C(N)=O)c1 (stereo not drawn) [Compound A-1-2-1-36] | – |
| 100 to 1000 | CC(Oc1ccc2c(C3CCCCC3)cc(=O)oc2c1)C(=O)c1cccc(C(=O)O)c1 (stereo not drawn) [Compound A-1-2-6-2] | – |
| 100 to 1000 | C[C@@H](Oc1ccc2c(-c3ccc(F)cc3Cl)cc(=O)oc2c1)C(=O)c1ccccc1C(=O)O [Compound A1-1-1] | – |
| 100 to 1000 | CC(Oc1ccc2c(-c3ccc(F)cc3Cl)cc(=O)oc2c1)C(=O)C1CCN(CCO)CC1 (stereo not drawn) [Compound A-1-7-1-4] | – |
| 20 to 100 | CC(Oc1ccc2c(-c3ccc(F)cc3Cl)cc(=O)oc2c1)C(=O)c1ccc(N(C)C)cc1 (stereo not drawn) [Compound A-1-2-1-80] | – |
| 100 to 1000 | CC(Oc1ccc2c(-c3ccc(F)cc3Cl)cc(=O)oc2c1)C(=O)C1CCN(C)CC1 (stereo not drawn) [Compound A-1-7-1-1] | – |
| 100 to 1000 | COc1ccccc1-c1cc(=O)oc2cc(OC(C)C(=O)c3cccc(C(=O)O)c3)ccc12 (stereo not drawn) [Compound A-1-2-1-8] | – |
| 100 to 1000 | CC(Oc1ccc2c(-c3ccccc3F)cc(=O)oc2c1)C(=O)c1cccc(C(=O)O)c1 (stereo not drawn) [Compound A-1-2-1-1] | – |
| 20 to 100 | CC(Oc1ccc2c(-c3ccc(F)cc3Cl)cc(=O)oc2c1)C(=O)c1cc(F)cc(C(=O)O)c1 (stereo not drawn) [Compound A-1-2-1-93] | F ([1]; bioavailability, Table I-4): 102.733%; maximum plasma concentration Cmax compared with IMT1B ([1]; comparison in words): significantly superior to IMT1B; plasma exposure AUC compared with IMT1B ([1]; comparison in words): significantly superior to IMT1B; T1/2 ([1]; main pharmacokinetic parameters, Table I-4): 11.706 h; AUC(0-inf) [1, 3]: 211 µg·h/mL; AUC(0-t) [1, 3]: 155 µg·h/mL; Cmax ([1]; mouse, plasma, po, 5 mg/kg, main pharmacokinetic parameters, Table I-4, read-out: Cmax): 8960 ng/mL; half-life ([1]; mouse, plasma, po): 11.7 h |
| 20 to 100 | CC(Oc1ccc2c(-c3ccc(F)cc3Cl)cc(=O)oc2c1)C(=O)C1CCN(C(=O)C(Cl)Cl)CC1 (stereo not drawn) [Compound A-1-7-1-3] | – |
| 20 to 100 | CNc1ccc(C(=O)C(C)Oc2ccc3c(-c4ccc(F)cc4Cl)cc(=O)oc3c2)cc1 (stereo not drawn) [Compound A-1-2-1-79] | – |
| 100 to 1000 | CC(Oc1ccc2c(-c3ccccc3)cc(=O)oc2c1)C(=O)c1cccc(C(=O)O)c1 (stereo not drawn) [Compound A-1-2-1-99] | – |
| > 1000 | CC(Oc1ccc2c(-c3cccnc3)cc(=O)oc2c1)C(=O)N1CCCC(C#N)C1 (stereo not drawn) [Compound A-1-2-6-23] | – |
| 100 to 1000 | CC(Oc1ccc2c(-c3ccc(F)cc3Cl)cc(=O)oc2c1)C(=O)c1ccc2c(c1)OCO2 (stereo not drawn) [Compound A-1-11-1-10] | – |
| 100 to 1000 | Cc1cccc(-c2cc(=O)oc3cc(OC(C)C(=O)c4cccc(C(=O)O)c4)ccc23)c1 (stereo not drawn) [Compound A-1-2-1-100] | – |
| < 20 | CC(Oc1ccc2c(-c3ccc(F)cc3Cl)cc(=O)oc2c1)C(=O)c1cc(F)c(O)c(F)c1 (stereo not drawn) [Compound A-1-2-1-94] | half-life ([1]; mouse, plasma, po): 4.57 h |
| < 20 | CC(Oc1ccc2c(-c3ccc(F)cc3Cl)cc(=O)oc2c1)C(=O)C1CCC(C(=O)[O-])CC1.[Na+] (stereo not drawn) [α-10] | half-life ([1]; mouse, plasma, po): 4.29 h |
| < 20 | CC(Oc1ccc2c(-c3ccc(F)cc3Cl)cc(=O)oc2c1)C(=O)c1cc[nH]c1 (stereo not drawn) [Compound A-1-10-1-5] | – |

| IC50 (A2780 cells; [2]) [nM] | SMILES | further results |
| --- | --- | --- |
| 100 to 1000 | CC(Oc1ccc2c(-c3ccc(F)cc3Cl)cc(=O)oc2c1)C(=O)C12CC3CC(CC(C3)C1)C2 (stereo not drawn) [Compound A-1-12-1-27] | – |
| 20 to 100 | Cc1cccc(C(=O)C(C)Oc2ccc3c(-c4ccc(F)cc4Cl)cc(=O)oc3c2)c1 (stereo not drawn) [Compound A-1-2-1-75] | – |
| 100 to 1000 | CCc1ccccc1-c1cc(=O)oc2cc(OC(C)C(=O)c3cccc(C(=O)O)c3)ccc12 (stereo not drawn) [Compound A-1-2-1-101] | – |
| < 20 | CC(Oc1ccc2c(-c3ccc(F)cc3Cl)cc(=O)oc2c1)C(=O)C1CCOCC1 (stereo not drawn) [Compound A-1-10-1-39] | – |
| > 1000 | CC(Oc1ccc2c(-c3ccncc3)cc(=O)oc2c1)C(=O)N1CCCC(C#N)C1 (stereo not drawn) [Compound A-1-2-6-24] | – |
| 100 to 1000 | CC(Oc1ccc2c(-c3ccc(F)cc3Cl)cc(=O)oc2c1)C(=O)[C@H]1CCCNC1 (stereo partly drawn) [Compound A-1-8-1-1] | – |
| > 1000 | CC(Oc1ccc2cc(-c3ccccc3)c(=O)oc2c1)C(=O)N1CCCC(C#N)C1 (stereo not drawn) [Compound A-1-2-2-2] | – |
| 20 to 100 | CNC(=O)c1cccc(C(=O)C(C)Oc2ccc3c(-c4ccc(F)cc4Cl)cc(=O)oc3c2)c1 (stereo not drawn) [Compound A-1-2-1-35] | – |
| – | C[C@@H](Oc1ccc2c(-c3ccc(F)cc3Cl)cc(=O)oc2c1)C(=O)c1ccnc(C(=O)O)c1 [Compound A1-4-5] | half-life ([1]; mouse, plasma, po): 9.73 h |
| 100 to 1000 | CC(Oc1ccc2c(-c3ccc(F)cc3Cl)cc(=O)oc2c1)C(=O)c1ccc2c(c1)OCCO2 (stereo not drawn) [Compound A-1-11-1-13] | – |
| 100 to 1000 | COc1cccc(C(=O)C(C)Oc2ccc3c(-c4ccc(F)cc4Cl)cc(=O)oc3c2)c1 (stereo not drawn) [Compound A-1-2-1-76] | – |
| 100 to 1000 | CC(Oc1ccc2c(-c3ccc(F)cc3Cl)cc(=O)oc2c1)C(=O)[C@@H]1CCCNC1 (stereo partly drawn) [Compound A-1-8-1-2] | – |
| 100 to 1000 | CC(Oc1ccc2c(-c3ccc(F)cc3Cl)cc(=O)oc2c1)C(=O)c1cccc(Br)c1 (stereo not drawn) [Compound A-1-2-1-73] | – |
| 100 to 1000 | CC(Oc1ccc2c(-c3ccc(F)cc3Cl)cc(=O)oc2c1)C(=O)C1CCN(C2CC2)CC1 (stereo not drawn) [Compound A-1-7-1-2] | half-life ([1]; mouse, plasma, po): 3.78 h |
| 20 to 100 | CC(Oc1ccc2c(-c3ccc(F)cc3Cl)cc(=O)oc2c1)C(=O)C1CCNCC1 (stereo not drawn) [α-11] | half-life ([1]; mouse, plasma, po): 5.27 h |
| 100 to 1000 | C[C@H](Oc1ccc2c(-c3ccc(F)cc3Cl)cc(=O)oc2c1)C(=O)c1ccccc1C(=O)O [Compound A2-1-1] | half-life ([1]; mouse, plasma, po): 3.54 h |
| 20 to 100 | CC(Oc1ccc2c(-c3ccccc3Cl)cc(=O)oc2c1)C(=O)c1cccc(C(=O)O)c1 (stereo not drawn) [Compound A-1-2-1-2] | – |
| 100 to 1000 | CC(Oc1ccc2c(-c3ccc(F)cc3Cl)cc(=O)oc2c1)C(=O)c1cccc([N+](=O)[O-])c1 (stereo not drawn) [Compound A-1-2-1-89] | – |
| 100 to 1000 | CC(Oc1ccc2c(-c3ccc(F)cc3Cl)cc(=O)oc2c1)C(=O)c1cccc(Cl)c1 (stereo not drawn) [Compound A-1-2-1-72] | – |
| 20 to 100 | CC(Oc1ccc2c(-c3ccc(F)cc3Cl)cc(=O)oc2c1)C(=O)c1ccccc1 (stereo not drawn) [Compound A-1-2-1-70] | – |
| – | C[C@@H](Oc1ccc2c(-c3ccc(F)cc3Cl)cc(=O)oc2c1)C(=O)c1ccc(C(=O)O)cc1 [Compound A1-1-9] | half-life ([1]; mouse, plasma, po): 3.89 h |
| 20 to 100 | CC(Oc1ccc2c(-c3ccccc3Br)cc(=O)oc2c1)C(=O)c1cccc(C(=O)O)c1 (stereo not drawn) [Compound A-1-2-1-3] | – |
| 100 to 1000 | C=Cc1ccccc1-c1cc(=O)oc2cc(OC(C)C(=O)c3cccc(C(=O)O)c3)ccc12 (stereo not drawn) [Compound A-1-2-1-103] | – |
| 20 to 100 | CC(Oc1ccc2c(-c3ccc(F)cc3Cl)cc(=O)oc2c1)C(=O)c1cccc(C#N)c1 (stereo not drawn) [Compound A-1-2-1-90] | – |
| < 20 | Cc1ccccc1-c1cc(=O)oc2cc(OC(C)C(=O)c3cccc(C(=O)O)c3)ccc12 (stereo not drawn) [Compound A-1-2-1-98] | – |
| 20 to 100 | CC(Oc1ccc2c(-c3ccc(F)cc3Cl)cc(=O)oc2c1)C(=O)c1ccc2[nH]ccc2c1 (stereo not drawn) [Compound A-1-11-1-1] | – |
| < 20 | CC(=O)Nc1ccc(C(=O)C(C)Oc2ccc3c(-c4ccc(F)cc4Cl)cc(=O)oc3c2)cc1 (stereo not drawn) [Compound A-1-2-1-84] | – |
